From patent publication US7998965B2, “Glutamate aggrecanase inhibitors” (Wyeth LLC, priority 2005, dated 2011) come the findings set out here.

The first experiment concerns the target T1, purified recombinant human Aggrecanase-1 (rAgg1) (Homo sapiens, UniProt O75173).
T1 sequence (O75173 213-837): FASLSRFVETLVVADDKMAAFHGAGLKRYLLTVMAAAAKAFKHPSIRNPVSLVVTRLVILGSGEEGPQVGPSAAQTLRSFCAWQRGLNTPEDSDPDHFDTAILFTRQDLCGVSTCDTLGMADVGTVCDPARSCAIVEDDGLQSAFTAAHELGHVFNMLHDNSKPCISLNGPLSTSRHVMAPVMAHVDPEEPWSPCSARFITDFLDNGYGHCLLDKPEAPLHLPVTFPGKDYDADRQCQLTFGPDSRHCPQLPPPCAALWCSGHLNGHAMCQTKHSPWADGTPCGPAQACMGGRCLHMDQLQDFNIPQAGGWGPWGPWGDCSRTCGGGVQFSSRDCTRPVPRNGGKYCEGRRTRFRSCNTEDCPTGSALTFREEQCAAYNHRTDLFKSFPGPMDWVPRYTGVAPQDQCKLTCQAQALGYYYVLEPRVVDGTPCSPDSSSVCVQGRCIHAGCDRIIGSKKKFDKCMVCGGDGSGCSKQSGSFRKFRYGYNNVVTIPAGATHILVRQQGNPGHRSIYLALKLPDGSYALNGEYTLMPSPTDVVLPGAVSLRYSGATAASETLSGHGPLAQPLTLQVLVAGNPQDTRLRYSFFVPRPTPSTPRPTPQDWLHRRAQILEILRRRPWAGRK
The experiment can be described thus: In vitro fluorescence screen for Aggrecanase-1 inhibitors. The note with it: Table 1. The experiment is classed as biochemical.
As to `O=C(O)CC[C@H](NC(=O)c1ccc(-c2ccco2)o1)C(=O)NCc1ccccc1` [Example 21C, N^1-benzyl-N^2-(2,2′-bifuran-5-ylcarbonyl)-L-α-glutamine], the “Agg1 IC50 (nM)” value is listed as “no inh”.

As to `O=C(O)CC[C@H](NC(=O)c1cccc(-c2cccs2)c1)C(=O)NCc1ccccc1` [Example 17XX, N^1-benzyl-N^2-(3-thien-2-ylbenzoyl)-L-α-glutamine], the “Agg1 IC50 (nM)” value is reported as “no inh”.

The same experiment, now with this note: Table 1; @ 7,500 (nM).
In the case of `O=C(O)CC[C@H](NC(=O)c1ccc(-c2ccc(OCC3CCC3)cc2)cc1)C(=O)NCc1ccccc1` [Example 15C, N^1-benzyl-N^2-{[4′-(cyclobutylmethoxy)-1,1′-biphenyl-4-yl]carbonyl}-L-α-glutamine], the “Agg1 % @ concentration” value amounted to 50% @.

Still in this experiment, the particulars now being: Table 1; enzyme not given, column follows Agg1 IC50; read-out: Ki.
By Ki is commonly meant the dissociation constant of the complex between target and ligand, obtained from inhibition or displacement. Turning to `O=C(O)CC[C@H](NC(=O)c1ccc2c(c1)Cc1ccccc1-2)C(=O)NCCCc1ccccc1` [Example 8IIII, N^2-(9H-fluoren-2-ylcarbonyl)-N^1-(3-phenylpropyl)-L-α-glutamine], the Ki amounted to 9 nM.

The same experiment, now with this note: Table 1; read-out: Agg1 IC50.
What is called IC50 is the midpoint of a concentration-inhibition curve. `CCOc1ccccc1-c1ccc(C(=O)N[C@@H](CCC(=O)O)C(=O)NCc2ccccc2)cc1` [Example 13E, N^1-benzyl-N^2-[(2′-ethoxy-1,1′-biphenyl-4-yl)carbonyl]-L-α-glutamine]: the IC50 was about 25000 nM.

As for `O=C(O)CC[C@H](NC(=O)c1ccc(-c2ccccc2)cc1)C(=O)NCC1C2CC3CC(C2)CC1C3` (stereo partly drawn) [Example 8I, N^1-(2-adamantylmethyl)-N^2-(1,1′-biphenyl-4-ylcarbonyl)-L-α-glutamine], the IC50 stood at 500 nM.

Consider `O=C(O)CC[C@H](NC(=O)c1ccc(-c2ccc(NC(=O)c3ccccc3)cc2)cc1)C(=O)O` [Example 30, N-{[4′-(benzoylamino)-1,1′-biphenyl-4-yl]carbonyl}-L-α-glutamic acid], for which the IC50 was 500 nM.

On to `Nc1cccc(CNC(=O)[C@H](CCC(=O)O)NC(=O)c2ccc(-c3ccccc3)cc2)c1` [Example 8DDDD, N^1-(3-aminobenzyl)-N^2-(1,1′-biphenyl-4-ylcarbonyl)-L-α-glutamine], for which the IC50 was found to be 110 nM.

Consider `Cc1ccc(C)c(-c2ccc(C(=O)N[C@@H](CCC(=O)O)C(=O)NCc3ccccc3)cc2)c1` [Example 13B, N^1-benzyl-N^2-[(2′,5′-dimethyl-1,1′-biphenyl-4-yl)carbonyl]-L-α-glutamine], for which the IC50 was about 50000 nM.

For `CC(C)(Cc1ccc(F)cc1)NC(=O)[C@@H](CCC(=O)O)NC(=O)c1ccc(-c2ccccc2)cc1` [Example 8FFFF, N^2-(biphenyl-4-ylcarbonyl)-N^1-[2-(4-fluorophenyl)-1,1-dimethylethyl]-D-α-glutamine], the IC50 is 3600 nM.

Consider `O=C(O)CC[C@H](NC(=O)c1ccc(-c2ccccc2)o1)C(=O)NCc1ccccc1` [Example 20, N^1-benzyl-N^2-(5-phenyl-2-furoyl)-L-α-glutamine], for which the IC50 was about 22000 nM.

Turning to `O=C(O)CC[C@H](NC(=O)c1ccc(-c2ccccc2)cc1)C(=O)NCc1cc(F)cc(F)c1` [Example 8AA, N^2-(1,1′-biphenyl-4-ylcarbonyl)-N^1-(3,5-difluorobenzyl)-L-α-glutamine], the IC50 turned out to be 370 nM.

`O=C(O)CC[C@H](NC(=O)c1ccc(-c2ccccc2)cc1)C(=O)NCc1ccncc1` [Example 8QQQ, N^2-(biphenyl-4-ylcarbonyl)-N^1-(pyridin-4-ylmethyl)-L-α-glutamine]: the IC50 is 330 nM.

For the molecule `O=C(O)CCC(NC(=O)c1ccc(Nc2ncccn2)cc1)C(=O)NCc1ccccc1` (stereo not drawn) [Example 8HHHH], the IC50 is 200 nM.

For the molecule `CC(=O)NCCNC(=O)[C@H](CCC(=O)O)NC(=O)c1ccc(-c2ccccc2)cc1` [Example 8OOOOOO, N^1-[2-(acetylamino)ethyl]-N^2-(1,1′-biphenyl-4-ylcarbonyl)-L-α-glutamine], the IC50 came out at 670 nM.

With `O=C(O)CC[C@H](NC(=O)c1ccc2ccccc2c1)C(=O)NCCCc1ccccc1` [Example 8RRRRRR, N^2-2-naphthoyl-N^1-(3-phenylpropyl)-L-α-glutamine], the IC50 is 3600 nM.

In the case of `O=C(O)CC[C@H](NC(=O)c1ccc(-c2ccccc2)cc1)C(=O)NCc1ccco1` [Example 8P, N^2-(1,1′-biphenyl-4-ylcarbonyl)-N^1-(2-furylmethyl)-L-α-glutamine], the IC50 came to 290 nM.

For `O=C(O)CC[C@H](NC(=O)c1ccc(-c2ccccc2)nc1)C(=O)NCc1ccccc1` [Example 22A, N^1-benzyl-N^2-[(6-phenylpyridin-3-yl)carbonyl]-L-α-glutamine], the IC50 amounted to 1000 nM.

Regarding `Cc1ccc(CNC(=O)[C@H](CCC(=O)NO)NC(=O)c2ccc(-c3ccccc3)cc2)cc1C` [Example 33B, N^2-(1,1′-biphenyl-4-ylcarbonyl)-N^1-(3,4-dimethylbenzyl)-N^5-hydroxy-L-α-glutamamide], the IC50 is under 30 nM.

For `O=C(O)CC[C@H](NC(=O)c1ccc(-c2ccccc2)cc1)C(=O)NCc1cccc(F)c1` [Example 8XX, N^2-(1,1′-biphenyl-4-ylcarbonyl)-N^1-(3-fluorobenzyl)-L-α-glutamine], the half-inhibitory concentration (IC50) was determined as 300 nM.

In the case of `O=Cc1ccc(-c2cccc(CCNC(=O)[C@H](CCC(=O)O)NC(=O)c3ccc(-c4ccccc4)cc3)c2)cc1` [Example 10J, N^2-(biphenyl-4-ylcarbonyl)-N^1-[2-(4′-formylbiphenyl-3-yl)ethyl]-L-α-glutamine], the IC50 amounted to 260 nM.

On to `O=C(O)CC[C@H](NC(=O)c1ccc2c(c1)Cc1ccccc1-2)C(=O)NCCCc1ccccc1` [Example 8IIII, N^2-(9H-fluoren-2-ylcarbonyl)-N^1-(3-phenylpropyl)-L-α-glutamine], for which the IC50 was under 30 nM.

Turning to `O=C(O)CC[C@H](NC(=O)c1ccc(-c2ccccc2)cc1)C(=O)NCCN1CCOCC1` [Example 8DDD, N^2-(biphenyl-4-ylcarbonyl)-N^1-(2-morpholin-4-ylethyl)-L-α-glutamine], the IC50 is 300 nM.

For the molecule `O=C(O)CC[C@H](NC(=O)c1ccc(-c2ccc(NC(=O)c3ccco3)cc2)cc1)C(=O)O` [Example 28, N-{[4′-(2-furoylamino)-1,1′-biphenyl-4-yl]carbonyl}-L-α-glutamic acid], the IC50 was 400 nM.

Consider `CC(=O)Nc1ccc(-c2ccc(C(=O)N[C@@H](CCC(=O)O)C(=O)O)cc2)cc1` [Example 29, N-{[4′-(acetylamino)-1,1′-biphenyl-4-yl]carbonyl}-L-α-glutamic acid], for which the IC50 was 3000 nM.

As for `O=C(O)CC[C@H](NC(=O)c1ccc(-c2ccncc2)cc1)C(=O)NCc1ccccc1` [Example 17VV, N^1-benzyl-N^2-(4-pyridin-4-ylbenzoyl)-L-α-glutamine], the IC50 is 7900 nM.

For the molecule `O=C(O)CC[C@H](NC(=O)c1ccc(Br)cc1)C(=O)NCc1ccccc1` [Example 8NNNNNN, N^1-benzyl-N^2-(4-bromobenzoyl)-L-α-glutamine], the IC50 is about 40000 nM.

Take `Cc1cc(C)cc(-c2ccc(C(=O)N[C@@H](CCC(=O)O)C(=O)NCc3ccccc3)o2)c1` [Example 21B, N^1-benzyl-N^2-[5-(3,5-dimethylphenyl)-2-furoyl]-L-α-glutamine]: the IC50 was about 6700 nM.

Regarding `COc1ccc(-c2ccccc2)cc1NC(=O)[C@H](CCC(=O)O)NC(=O)c1ccc(-c2ccccc2)cc1` [Example 17BBB, N^2-(1,1′-biphenyl-4-ylcarbonyl)-N^1-(4-methoxy-1,1′-biphenyl-3-yl)-L-α-glutamine], the IC50 amounted to 900 nM.

The experiment is the same for the next values; noted with them: Table 2; read-out: Agg1 IC50.
On to `COc1ccc(CCN(C)C(=O)[C@H](CCC(=O)O)NC(=O)c2ccc(-c3ccccc3)cc2)cc1OC` [Example 8GGGGGG, N^2-(biphenyl-4-ylcarbonyl)-N-[2-(3,4-dimethoxyphenyl)ethyl]-N-methyl-L-α-glutamine], for which the IC50 is 4200 nM.
